Source: PubChem BioAssay AID1963963 (Molecular Pharmacology Branch, DTP, NCI, 2024)

Test system: 958667-338-R-J2-PDC tumor spheroids viability
Assay: Anticancer human tumor 958667-338-R-J2-PDC patient-derived colon adenocarcinoma cell line growth inhibition [PI3K]
Settings: spheroids with HUVEC and MSC; for IC50: curve of first compound; for viability, T/C: stronger effect = lower value
Source text: Combinatorial screen of targeted agents with the PI3K inhibitors inavolisib, alpelisib, duvelisib, and copanlisib in multi-cell type tumor spheroids
A high-throughput screen of multi-cell type tumor spheroids was designed to identify active combinations of targeted small molecules and PI3K pathway inhibitors. Complex spheroids include a stromal component modeled by human endothelial cells (HUVEC) and fibroblasts modeled by human mesenchymal stem cells (MSCs). The concentration ranges selected for each drug and investigational agent were based upon clinically achievable concentrations if the clinical Cmax of the agent was known.
Compounds. The drugs and investigational agents: inavolisib (NSC800729), alpelisib (NSC765974), duvelisib (NSC772469), copanlisib (NSC816437), ipatasertib (NSC767898), afuresertib (NSC778305), talazoparib (NSC767125), sapanisertib (NSC764658), selumetinib (NSC741078), tovorafenib (DAY101, NSC766906), vemurafenib (NSC761431), ravoxertinib (NSC781343), sotorasib (NSC818433), MRTX1133 (NSC 836407), abemaciclib (NSC 768073), palbociclib (NSC758247), venetoclax (NSC 766270), SY5609 (NSC837396), enzalutamide (NSC755605), and darolutamide (NSC825331), were obtained from the National Cancer Institute (NCI) Developmental Therapeutics Program Chemical Repository. The FDA-approved anticancer drug set is available from the NCI Developmental Therapeutics Program. […] The stock solutions were prepared in dimethyl sulfoxide (DMSO, Sigma-Aldrich, St. Louis, MO, cat. D2650) at 800-fold the tested concentration and stored at -70 degrees C prior to their use. All drugs and investigational agents were tested over a range starting from a high concentration at or near the clinical Cmax and decreasing in half-log increments. If the clinical Cmax for an agent had not been determined, the highest concentration tested was 10 microM.
Cell Culture. All cells were maintained in an incubator at 37 degrees C and 5% CO2 with 95% humidity. The PDC lines were cultured according to standard operating procedures established by the NCI PDMR (https://pdmr.cancer.gov/sops/default.htm). All PDCs were thawed and cultured in Matrigel-coated flasks prepared with a working solution of 1X Ham's F-12 nutrient mix, without supplementation (Invitrogen, Waltham, MA, cat. 11765054), 100 U/mL penicillin-streptomycin (Invitrogen, cat. 15140122), and 2.5% Matrigel (Corning Inc., Corning, NY, cat. 354248) for the first three passages. The 354836-022-R-J1-PDC, 475296-252-R-J1-PDC, and 997726-040-R-J2-PDC lines were cultured in 6A media, which includes advanced DMEM/F-12 (Thermo Fisher Scientific, cat. 12634028), 10 mM HEPES (Thermo Fisher Scientific, cat. 15630080), 1X GlutaMAX supplement (Thermo Fisher Scientific, cat. 35050061), 0.1 mg/mL primocin (InvivoGen, San Diego, CA, cat. ant-pm-2), 10% defined fetal bovine serum, heat inactivated (HyClone Laboratories Inc., Logan, UT, cat. SH30070.03HI), 50% L-WRN conditioned media (ATCC, cat. CRL-3276), 1.25 mM N-Acetyl-L-cysteine (Sigma-Aldrich, cat. A9165), 10 mM nicotinamide (Sigma-Aldrich, cat. N0636), 1X B-27 supplement (Thermo Fisher Scientific, cat. 17504044), 1X N-2 supplement (Thermo Fisher Scientific, cat. 17502048), and 10 microM Y-27632 dihydrochloride (Tocris Bioscience, Bristol, United Kingdom, cat. 1254). The 624824-186-R-J2-PDC line was cultured in 6C/Colon 1B media, which includes all 6A media components plus 50 ng/mL human EGF recombinant protein (Thermo Fisher Scientific, cat. PHG0311). […]

[1] = second compound 0.00316 µM, first compound 0.0316 µM
[2] = second compound 0.00316 µM, first compound 0.1 µM
[3] = second compound 0.01 µM, first compound 0.0316 µM
[4] = second compound 0.01 µM, first compound 0.1 µM
[5] = second compound 0.0316 µM, first compound 0.0316 µM
[6] = second compound 0.0316 µM, first compound 0.1 µM
[7] = second compound 0.1 µM, first compound 0.0316 µM
[8] = second compound 0.1 µM, first compound 0.1 µM
[9] = second compound 0.316 µM, first compound 0.0316 µM
[10] = second compound 0.316 µM, first compound 0.1 µM
[11] = second compound 1 µM, first compound 0.0316 µM
[12] = second compound 1 µM, first compound 0.1 µM
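Also: spheroids exposed to compounds for seven days before readout.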

CC(=O)c1c(C)c2cnc(Nc3ccc(N4CCNCC4)cn3)nc2n(C2CCCC2)c1=O + CC(Nc1ccc2c(c1)OCCn1cc(N3C(=O)OCC3C(F)F)nc1-2)C(N)=O
IC50 (second compound 0.00316 µM): > 100 nM | IC50 (second compound 0.01 µM): > 100 nM | IC50 (second compound 0.0316 µM): > 100 nM | IC50 (second compound 0.1 µM): > 100 nM | IC50 (second compound 0.316 µM): > 100 nM | IC50 (second compound 1 µM): 18 nM | viability, T/C (second compound 0.00316 µM, first compound 0.000316 µM): 96.6% | viability, T/C (second compound 0.00316 µM, first compound 0.001 µM): 107% | viability, T/C (second compound 0.00316 µM, first compound 0.00316 µM): 101% | viability, T/C (second compound 0.00316 µM, first compound 0.01 µM): 104% | viability, T/C [1]: 99.1% | viability, T/C [2]: 84.3% | viability, T/C (second compound 0.01 µM, first compound 0.000316 µM): 107% | viability, T/C (second compound 0.01 µM, first compound 0.001 µM): 95.7% | viability, T/C (second compound 0.01 µM, first compound 0.00316 µM): 105% | viability, T/C (second compound 0.01 µM, first compound 0.01 µM): 102% | viability, T/C [3]: 107% | viability, T/C [4]: 83.8% | viability, T/C (second compound 0.0316 µM, first compound 0.000316 µM): 97.3% | viability, T/C (second compound 0.0316 µM, first compound 0.001 µM): 73.8% | viability, T/C (second compound 0.0316 µM, first compound 0.00316 µM): 78.3% | viability, T/C (second compound 0.0316 µM, first compound 0.01 µM): 90.2% | viability, T/C [5]: 98% | viability, T/C [6]: 85.3% | viability, T/C (second compound 0.1 µM, first compound 0.000316 µM): 78.2% | viability, T/C (second compound 0.1 µM, first compound 0.001 µM): 87.4% | viability, T/C (second compound 0.1 µM, first compound 0.00316 µM): 89.2% | viability, T/C (second compound 0.1 µM, first compound 0.01 µM): 75.2% | viability, T/C [7]: 92.3% | viability, T/C [8]: 58.2% | viability, T/C (second compound 0.316 µM, first compound 0.000316 µM): 61.9% | viability, T/C (second compound 0.316 µM, first compound 0.001 µM): 73% | viability, T/C (second compound 0.316 µM, first compound 0.00316 µM): 62.8% | viability, T/C (second compound 0.316 µM, first compound 0.01 µM): 65.9% | viability, T/C [9]: 56.9% | viability, T/C [10]: 67.4% | viability, T/C (second compound 1 µM, first compound 0.000316 µM): 64.5% | viability, T/C (second compound 1 µM, first compound 0.001 µM): 62.8% | viability, T/C (second compound 1 µM, first compound 0.00316 µM): 47.5% | viability, T/C (second compound 1 µM, first compound 0.01 µM): 53.2% | viability, T/C [11]: 56.6% | viability, T/C [12]: 37%

CNC(=O)c1ccc(N2C(=S)N(c3ccc(C#N)c(C(F)(F)F)c3)C(=O)C2(C)C)cc1F + CC(Nc1ccc2c(c1)OCCn1cc(N3C(=O)OCC3C(F)F)nc1-2)C(N)=O
IC50 (second compound 0.00316 µM): > 10000 nM | IC50 (second compound 0.01 µM): > 10000 nM | IC50 (second compound 0.0316 µM): > 10000 nM | IC50 (second compound 0.1 µM): > 10000 nM | IC50 (second compound 0.316 µM): > 10000 nM | IC50 (second compound 1 µM): > 10000 nM | viability, T/C [1]: 96.3% | viability, T/C [2]: 103% | viability, T/C (second compound 0.00316 µM, first compound 0.316 µM): 93.4% | viability, T/C (second compound 0.00316 µM, first compound 1 µM): 84.3% | viability, T/C (second compound 0.00316 µM, first compound 3.16 µM): 97.1% | viability, T/C (second compound 0.00316 µM, first compound 10 µM): 102% | viability, T/C [3]: 115% | viability, T/C [4]: 102% | viability, T/C (second compound 0.01 µM, first compound 0.316 µM): 80.6% | viability, T/C (second compound 0.01 µM, first compound 1 µM): 97.6% | viability, T/C (second compound 0.01 µM, first compound 3.16 µM): 89.9% | viability, T/C (second compound 0.01 µM, first compound 10 µM): 95.7% | viability, T/C [5]: 104% | viability, T/C [6]: 98.1% | viability, T/C (second compound 0.0316 µM, first compound 0.316 µM): 93.6% | viability, T/C (second compound 0.0316 µM, first compound 1 µM): 107% | viability, T/C (second compound 0.0316 µM, first compound 3.16 µM): 104% | viability, T/C (second compound 0.0316 µM, first compound 10 µM): 94.6% | viability, T/C [7]: 84.5% | viability, T/C [8]: 57.5% | viability, T/C (second compound 0.1 µM, first compound 0.316 µM): 90% | viability, T/C (second compound 0.1 µM, first compound 1 µM): 79.6% | viability, T/C (second compound 0.1 µM, first compound 3.16 µM): 85.1% | viability, T/C (second compound 0.1 µM, first compound 10 µM): 83.5% | viability, T/C [9]: 75.3% | viability, T/C [10]: 73.5% | viability, T/C (second compound 0.316 µM, first compound 0.316 µM): 73.9% | viability, T/C (second compound 0.316 µM, first compound 1 µM): 72.5% | viability, T/C (second compound 0.316 µM, first compound 3.16 µM): 63% | viability, T/C (second compound 0.316 µM, first compound 10 µM): 68.4% | viability, T/C [11]: 67% | viability, T/C [12]: 64.3% | viability, T/C (second compound 1 µM, first compound 0.316 µM): 64.2% | viability, T/C (second compound 1 µM, first compound 1 µM): 62% | viability, T/C (second compound 1 µM, first compound 3.16 µM): 69.4% | viability, T/C (second compound 1 µM, first compound 10 µM): 50.6%
